Measurements published in PubChem BioAssay (NCI).
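How tested: cells in 96-well plates exposed to compound for 48 hours at five concentrations. The concentration for 50% growth inhibition is given as GI50. TGI: total growth inhibition.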

Experiments:
Test in all cases: NCI-60 cell line screen, 48 h
OVCAR-4 ovarian = tested on: OVCAR-4 ovarian
NCI-H23 lung = tested on: NCI-H23 lung
DU-145 prostate = tested on: DU-145 prostate
RPMI-8226 leukemia = tested on: RPMI-8226 leukemia
SF-268 CNS = tested on: SF-268 CNS
SK-OV-3 ovarian = tested on: SK-OV-3 ovarian
NCI-H226 lung = tested on: NCI-H226 lung
RXF 393 renal = tested on: RXF 393 renal
MDA-MB-435 = tested on: MDA-MB-435
LOX IMVI melanoma = tested on: LOX IMVI melanoma
ACHN renal = tested on: ACHN renal
UACC-257 melanoma = tested on: UACC-257 melanoma
U251 CNS = tested on: U251 CNS
TK-10 renal = tested on: TK-10 renal
CAKI-1 renal = tested on: CAKI-1 renal
MCF7 breast = tested on: MCF7 breast
UACC-62 melanoma = tested on: UACC-62 melanoma
MOLT-4 leukemia = tested on: MOLT-4 leukemia
A498 renal = tested on: A498 renal
COLO 205 colon = tested on: COLO 205 colon
SK-MEL-28 melanoma = tested on: SK-MEL-28 melanoma
HCT-15 colon = tested on: HCT-15 colon
HL-60(TB) leukemia = tested on: HL-60(TB) leukemia
OVCAR-8 ovarian = tested on: OVCAR-8 ovarian
OVCAR-5 ovarian = tested on: OVCAR-5 ovarian
BT-549 breast = tested on: BT-549 breast
M14 melanoma = tested on: M14 melanoma
SF-539 CNS = tested on: SF-539 CNS
HS 578T breast = tested on: HS 578T breast
IGROV1 ovarian = tested on: IGROV1 ovarian
K-562 leukemia = tested on: K-562 leukemia
KM12 colon = tested on: KM12 colon
SW-620 colon = tested on: SW-620 colon
MDA-MB-231 breast = tested on: MDA-MB-231 breast
OVCAR-3 ovarian = tested on: OVCAR-3 ovarian
PC-3 prostate = tested on: PC-3 prostate
NCI-H522 lung = tested on: NCI-H522 lung
SN12C renal = tested on: SN12C renal
SK-MEL-5 melanoma = tested on: SK-MEL-5 melanoma
HCT-116 colon = tested on: HCT-116 colon
UO-31 renal = tested on: UO-31 renal
SR leukemia = tested on: SR leukemia
HT29 colon = tested on: HT29 colon
NCI/ADR-RES ovarian = tested on: NCI/ADR-RES ovarian
HCC-2998 colon = tested on: HCC-2998 colon
T-47D breast = tested on: T-47D breast
NCI-H460 lung = tested on: NCI-H460 lung
SNB-75 CNS = tested on: SNB-75 CNS
786-0 renal = tested on: 786-0 renal
SNB-19 CNS = tested on: SNB-19 CNS
HOP-62 NSCLC = tested on: HOP-62 NSCLC
HOP-92 NSCLC = tested on: HOP-92 NSCLC
SF-295 CNS = tested on: SF-295 CNS
A549 NSCLC = tested on: A549 NSCLC
SK-MEL-2 melanoma = tested on: SK-MEL-2 melanoma
EKVX NSCLC = tested on: EKVX NSCLC

`CCOC(=O)C(=Cc1ccc(-c2ccccc2)cc1)C(=O)OCC` was tested, and the GI50 (OVCAR-4 ovarian) was 6.3 µM, the TGI (OVCAR-4 ovarian) was 19.9 µM and the GI50 (NCI-H23 lung) was 2.22 µM. It also gave a TGI (NCI-H23 lung) of 6.34 µM, a GI50 (DU-145 prostate) of 3.12 µM and a TGI (DU-145 prostate) of 11.1 µM. It also gave a GI50 (RPMI-8226 leukemia) of 2.43 µM, a TGI (RPMI-8226 leukemia) of 7.04 µM and a GI50 (SF-268 CNS) of 3.06 µM. The TGI (SF-268 CNS) was 11 µM, the GI50 (SK-OV-3 ovarian) was 11.7 µM and the TGI (SK-OV-3 ovarian) was 24.8 µM. For the same molecule, the GI50 (NCI-H226 lung) was 2.4 µM, the TGI (NCI-H226 lung) was 5.21 µM and the GI50 (RXF 393 renal) was 1.95 µM. The TGI (RXF 393 renal) was 3.74 µM, the GI50 (MDA-MB-435) was 2.55 µM and the TGI (MDA-MB-435) was 7.57 µM. It also gave a GI50 (LOX IMVI melanoma) of 1.72 µM, a TGI (LOX IMVI melanoma) of 3.21 µM and a GI50 (ACHN renal) of 1.83 µM. It also gave a TGI (ACHN renal) of 3.42 µM, a GI50 (UACC-257 melanoma) of 3.53 µM and a TGI (UACC-257 melanoma) of 9.29 µM. For the same molecule, the GI50 (U251 CNS) was 1.68 µM, the TGI (U251 CNS) was 5.67 µM and the GI50 (TK-10 renal) was 3.91 µM. It also gave a TGI (TK-10 renal) of 13.3 µM, a GI50 (CAKI-1 renal) of 3.24 µM and a TGI (CAKI-1 renal) of 10.8 µM. It also gave a GI50 (MCF7 breast) of 2.69 µM, a TGI (MCF7 breast) of 13.2 µM and a GI50 (UACC-62 melanoma) of 1.76 µM. The TGI (UACC-62 melanoma) was 3.69 µM, the GI50 (MOLT-4 leukemia) was 2.46 µM and the TGI (MOLT-4 leukemia) was 6.59 µM. The GI50 (A498 renal) was 3.74 µM, the TGI (A498 renal) was 12.8 µM and the GI50 (COLO 205 colon) was 3.45 µM. For the same molecule, the TGI (COLO 205 colon) was 11.1 µM, the GI50 (SK-MEL-28 melanoma) was 1.95 µM and the TGI (SK-MEL-28 melanoma) was 4.23 µM. For the same molecule, the GI50 (HCT-15 colon) was 1.93 µM, the TGI (HCT-15 colon) was 4.84 µM and the GI50 (HL-60(TB) leukemia) was 2.1 µM. The TGI (HL-60(TB) leukemia) was 4.7 µM, the GI50 (OVCAR-8 ovarian) was 2.85 µM and the TGI (OVCAR-8 ovarian) was greater than 100 µM. The GI50 (OVCAR-5 ovarian) was 2.67 µM, the TGI (OVCAR-5 ovarian) was 6.48 µM and the GI50 (BT-549 breast) was 2.64 µM. For the same molecule, the TGI (BT-549 breast) was 7.03 µM, the GI50 (M14 melanoma) was 3.14 µM and the TGI (M14 melanoma) was 11.1 µM. The GI50 (SF-539 CNS) was 1.8 µM, the TGI (SF-539 CNS) was 3.35 µM and the GI50 (HS 578T breast) was 4.36 µM. For the same molecule, the TGI (HS 578T breast) was 25.7 µM, the GI50 (IGROV1 ovarian) was 2.29 µM and the TGI (IGROV1 ovarian) was 5.61 µM. For the same molecule, the GI50 (K-562 leukemia) was 3.17 µM, the TGI (K-562 leukemia) was greater than 100 µM and the GI50 (KM12 colon) was 3.37 µM. For the same molecule, the TGI (KM12 colon) was 12.1 µM, the GI50 (SW-620 colon) was 2.07 µM and the TGI (SW-620 colon) was 4.28 µM. It also gave a GI50 (MDA-MB-231 breast) of 2.98 µM, a TGI (MDA-MB-231 breast) of 7.2 µM and a GI50 (OVCAR-3 ovarian) of 2.86 µM. The TGI (OVCAR-3 ovarian) was 8.18 µM, the GI50 (PC-3 prostate) was 2.51 µM and the TGI (PC-3 prostate) was 6.09 µM. For the same molecule, the GI50 (NCI-H522 lung) was 1.68 µM, the TGI (NCI-H522 lung) was 3.38 µM and the GI50 (SN12C renal) was 2.02 µM. The TGI (SN12C renal) was 4.23 µM, the GI50 (SK-MEL-5 melanoma) was 2.39 µM and the TGI (SK-MEL-5 melanoma) was 5.75 µM. The GI50 (HCT-116 colon) was 2.13 µM, the TGI (HCT-116 colon) was 4.91 µM and the GI50 (UO-31 renal) was 1.71 µM. The TGI (UO-31 renal) was 3.29 µM, the GI50 (SR leukemia) was 3.13 µM and the TGI (SR leukemia) was 38.3 µM. For the same molecule, the GI50 (HT29 colon) was 2.04 µM, the TGI (HT29 colon) was 3.88 µM and the GI50 (NCI/ADR-RES ovarian) was 3 µM. It also gave a TGI (NCI/ADR-RES ovarian) of 8.77 µM, a GI50 (HCC-2998 colon) of 1.89 µM and a TGI (HCC-2998 colon) of 3.54 µM. For the same molecule, the GI50 (T-47D breast) was 2.02 µM, the TGI (T-47D breast) was 4.74 µM and the GI50 (NCI-H460 lung) was 5.04 µM. The TGI (NCI-H460 lung) was 17.2 µM, the GI50 (SNB-75 CNS) was 3.89 µM and the TGI (SNB-75 CNS) was 16.3 µM. It also gave a GI50 (786-0 renal) of 2.06 µM, a TGI (786-0 renal) of 4.16 µM and a GI50 (SNB-19 CNS) of 2.21 µM. For the same molecule, the TGI (SNB-19 CNS) was 5.14 µM, the GI50 (HOP-62 NSCLC) was 3.55 µM and the TGI (HOP-62 NSCLC) was 11.3 µM. For the same molecule, the GI50 (HOP-92 NSCLC) was 2.42 µM, the TGI (HOP-92 NSCLC) was 6.72 µM and the GI50 (SF-295 CNS) was 5.22 µM. It also gave a TGI (SF-295 CNS) of 18.4 µM, a GI50 (A549 NSCLC) of 3.61 µM and a TGI (A549 NSCLC) greater than 100 µM. It also gave a GI50 (SK-MEL-2 melanoma) of 3.81 µM, a TGI (SK-MEL-2 melanoma) of 11.4 µM and a GI50 (EKVX NSCLC) of 10.3 µM. For the same molecule, the TGI (EKVX NSCLC) was 22.1 µM.
